Like-named read-outs stand apart in the source and are kept apart here.
Molecular target: T1, human p38 kinase alpha (Homo sapiens, UniProt Q16539)
T1 construct: GST (N, cleaved yes); made in house; host or cells: E. coli DH10B
Assay: p38 kinase in vitro assay, phosphorylation of biotinylated PHAS-I with 32P-ATP
Format: biochemical

[1] = in vitro P38-alpha kinase inhibition, read-out: P38 alpha kinase IC50
[2] = in vitro P38-alpha kinase, read-out: P38 alpha kinase IC50

T1 sequence (Q16539 whole entry): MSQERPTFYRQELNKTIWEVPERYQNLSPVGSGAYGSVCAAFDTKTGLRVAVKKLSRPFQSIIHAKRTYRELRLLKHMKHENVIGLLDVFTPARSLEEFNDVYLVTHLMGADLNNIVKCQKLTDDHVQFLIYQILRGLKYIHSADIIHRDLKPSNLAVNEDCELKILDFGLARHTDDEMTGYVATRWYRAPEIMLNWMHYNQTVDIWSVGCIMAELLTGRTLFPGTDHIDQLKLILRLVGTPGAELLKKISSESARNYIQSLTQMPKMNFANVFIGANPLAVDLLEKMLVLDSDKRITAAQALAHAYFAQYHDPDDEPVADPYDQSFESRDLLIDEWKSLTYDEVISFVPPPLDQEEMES

| IC50 [1] | IC50 [2] | SMILES | also measured |
| --- | --- | --- | --- |
| 1250 nM |  | COc1cccc(CC(=O)NC(Cc2ccccc2)c2[nH]nc(-c3ccc(F)cc3)c2-c2ccncc2)c1 (stereo not drawn) [Example B-0849] |  |
|  |  | CCCCS(=O)(=O)NCCc1[nH]nc(-c2ccc(F)cc2)c1-c1ccncc1 [Example B-1022] | P38 alpha kinase % inhib @ conc. (uM) (@ 1.0 uM): 84.0% @ |
| 230 nM |  | CC(C)c1ccc(S(=O)(=O)NCCc2[nH]nc(-c3ccc(F)cc3)c2-c2ccncc2)cc1 [Example B-1074] |  |
|  | < 100 nM | O=[N+]([O-])c1ccccc1CS(=O)(=O)NCCCc1[nH]nc(-c2ccc(F)cc2)c1-c1ccncc1 [Example B-1247] |  |
|  | 11500 nM | Cc1c(-c2ccncc2)c(-c2ccc(F)cc2)nn1CC(=O)NCC1CC1 [Example B-2276] |  |
|  | 1000 nM | Cc1c(-c2ccncc2)c(-c2ccc(F)cc2)nn1CC(=O)NCCc1ccc([N+](=O)[O-])cc1 [Example B-2302] |  |
| 1870 nM |  | CC(NC(=O)c1ccncc1)c1[nH]nc(-c2ccc(F)cc2)c1-c1ccncc1 (stereo not drawn) [Example B-0555] |  |
|  |  | Cc1c(-c2ccncc2)c(-c2ccc(F)cc2)nn1CC(=O)Nc1ccccc1C(C)C [Example B-2433] | P38 alpha kinase IC50, uM or % inhib @ conc. (uM): % inhib (@ 10.0 uM): 94.0% @ |
|  | 260 nM | Cc1cc(C)c(S(=O)(=O)NCCCc2[nH]nc(-c3ccc(F)cc3)c2-c2ccncc2)c(C)c1 [Example B-1244] |  |
| < 100 nM |  | COc1ccc(C)cc1S(=O)(=O)NCCc1[nH]nc(-c2ccc(F)cc2)c1-c1ccncc1 [Example B-1098] |  |
|  | 1.2 nM | O=C(c1ccco1)N1CCC(c2[nH]nc(-c3ccc(F)cc3)c2-c2ccncc2)CC1 [Example B-1383] |  |
| 1030 nM |  | CC(NC(=O)N1CCOCC1)c1[nH]nc(-c2ccc(F)cc2)c1-c1ccncc1 (stereo not drawn) [Example B-0582] |  |
|  | 2110 nM | CCCCNC(=O)Cn1nc(-c2ccc(F)cc2)c(-c2ccncc2)c1C [Example B-2293] |  |
| 650 nM |  | CNC(=O)CCC(NS(C)(=O)=O)c1[nH]nc(-c2ccc(F)cc2)c1-c1ccncc1 (stereo not drawn) [Example B-0878] |  |
|  | 810 nM | Cc1c(-c2ccncc2)c(-c2ccc(F)cc2)nn1CC(=O)NCc1ccccn1 [Example B-2281] |  |
|  |  | O=C(NCCc1[nH]nc(-c2ccc(F)cc2)c1-c1ccncc1)c1ccccc1I [Example B-0982] | P38 alpha kinase % inhib @ conc. (uM) (@ 1.0 uM): 65.0% @ |
|  | 5 nM | O=C(c1ccccc1I)N1CCC(c2[nH]nc(-c3ccc(F)cc3)c2-c2ccncc2)CC1 [Example B-1359] |  |
|  |  | O=C(c1n[nH]c(-c2ccc(F)cc2)c1-c1ccncc1)N1CCNCC1 [A-314, Step 1, 1-[[5-(4-fluorophenyl)-4-(4-pyridinyl)-1H-pyrazol-3-yl]carbonyl]piperazine, monhydrate] | IC50 (Table 8, 1% DMSO, read-out: p38α Kinase Assay IC50): 850 nM |
| 2900 nM |  | O=S(=O)(NC(Cc1ccccc1)c1[nH]nc(-c2ccc(F)cc2)c1-c1ccncc1)c1ccc(F)cc1F (stereo not drawn) [Example B-0712] |  |
|  | 250 nM | Cc1c(C)c(S(=O)(=O)NCCCc2[nH]nc(-c3ccc(F)cc3)c2-c2ccncc2)c(C)c2c1OC(C)(C)CC2 [Example B-1287] |  |
|  | < 100 nM | O=C(c1cccnc1)N1CCC(c2[nH]nc(-c3ccc(F)cc3)c2-c2ccncc2)CC1 [Example B-1387] |  |
|  | 1790 nM | COC(=O)CCCNC(=O)Cn1nc(-c2ccc(F)cc2)c(-c2ccncc2)c1C [Example B-2295] |  |
|  | 17300 nM | COc1ccc2[nH]cc(CCNC(=O)Cn3nc(-c4ccc(F)cc4)c(-c4ccncc4)c3C)c2c1 [Example B-2296] |  |

| IC50 [1] | IC50 [2] | SMILES | also measured |
| --- | --- | --- | --- |
| < 100 nM |  | COc1ccc(NC(=O)N[C@H](C)c2[nH]nc(-c3ccc(F)cc3)c2-c2ccncc2)c(OC)c1 [Example B-0422] |  |
|  |  | COc1ccc(C(=O)NCc2[nH]nc(-c3ccc(F)cc3)c2-c2ccncc2)cc1 [Example B-0039] | inhibition at 1 µM (@ 1.0 uM, read-out: P38 alpha kinase % inhib @ conc.): 89% |
|  |  | Cc1c(-c2ccncc2)c(-c2ccc(F)cc2)nn1CC(=O)NC1CCCCC1C1CCCCC1 (stereo not drawn) [Example B-2346] | P38 alpha kinase % inhib @ conc. (@ 10.0 uM): 45.0% @ |
| 180 nM |  | CC(NC(=O)C1CCCN1)c1[nH]nc(-c2ccc(F)cc2)c1-c1ccncc1 (stereo not drawn) [Example B-0605] |  |
| 23000 nM |  | COc1ccc(NC(=O)NC(Cc2ccccc2)c2[nH]nc(-c3ccc(F)cc3)c2-c2ccncc2)c(OC)c1 (stereo not drawn) [Example B-0744] |  |
| 1880 nM |  | CC(C)NC(=O)NC(C)c1[nH]nc(-c2ccc(F)cc2)c1-c1ccncc1 (stereo not drawn) [Example B-0578] |  |
| 260 nM |  | Cc1noc(C)c1C(=O)NCCc1[nH]nc(-c2ccc(F)cc2)c1-c1ccncc1 [Example B-1157] |  |
|  | 660 nM | O=C(NCCCc1[nH]nc(-c2ccc(F)cc2)c1-c1ccncc1)c1cccc2ccccc12 [Example B-1329] |  |
|  | 43 nM | O=C(NCCCc1[nH]nc(-c2ccc(F)cc2)c1-c1ccncc1)c1cccc(F)c1 [Example B-1346] |  |
|  |  | Cc1c(-c2ccncc2)c(-c2ccc(F)cc2)nn1CC(=O)Nc1ccc(Cl)cc1 [Example B-2418] | P38 alpha kinase IC50, uM or % inhib @ conc. (uM): % inhib (@ 10.0 uM): 88.0% @ |
|  |  | O=C(NCCCc1[nH]nc(-c2ccc(F)cc2)c1-c1ccncc1)c1ccno1 [Example B-1169] | P38 alpha kinase % inhib @ conc. (uM) (@ 1.0 uM): 80.0% @ |
| 2470 nM |  | O=C(NCCc1[nH]nc(-c2ccc(F)cc2)c1-c1ccncc1)c1cc(F)cc(C(F)(F)F)c1 [Example B-1141] |  |
| 3930 nM |  | CC(NC(=O)Nc1ccc(F)cc1)c1[nH]nc(-c2ccc(F)cc2)c1-c1ccncc1 (stereo not drawn) [Example B-0583] |  |
|  |  | COc1ccc(CC(=O)NCCc2[nH]nc(-c3ccc(F)cc3)c2-c2ccncc2)cc1 [Example B-1000] | P38 alpha kinase % inhib @ conc. (uM) (@ 1.0 uM): 55.0% @ |
|  |  | COC(=O)C(Cc1ccc([N+](=O)[O-])cc1)NC(=O)Cn1nc(-c2ccc(F)cc2)c(-c2ccncc2)c1C (stereo not drawn) [Example B-2349] | P38 alpha kinase % inhib @ conc. (@ 10.0 uM): 75.0% @ |
| 740 nM |  | COCC(=O)NC(Cc1ccccc1)c1[nH]nc(-c2ccc(F)cc2)c1-c1ccncc1 (stereo not drawn) [Example B-0842] |  |
|  | 150 nM | O=S(=O)(NCCCc1[nH]nc(-c2ccc(F)cc2)c1-c1ccncc1)c1ccc(Cl)cc1Cl [Example B-1253] |  |
| 88 nM |  | CC(NS(=O)(=O)c1ccc(-c2ccccn2)s1)c1[nH]nc(-c2ccc(F)cc2)c1-c1ccncc1 (stereo not drawn) [Example B-0660] |  |
|  |  | O=C(Cc1cccs1)NCCc1[nH]nc(-c2ccc(F)cc2)c1-c1ccncc1 [Example B-1051] | P38 alpha kinase % inhib @ conc. (uM) (@ 1.0 uM): 68.0% @ |
|  | 1480 nM | Cc1cccc(C(=O)N2CCC(c3[nH]nc(-c4ccc(F)cc4)c3-c3ccncc3)CC2)c1 [Example B-1395] |  |
|  |  | CCCNC(=O)NCCCc1[nH]nc(-c2ccc(F)cc2)c1-c1ccncc1 [Example B-1218] | P38 alpha kinase % inhib @ conc. (@ 1.0 uM): 88.0% @ |
|  | 14900 nM | Cc1c(-c2ccncc2)c(-c2ccc(F)cc2)nn1CC(=O)NCC(c1ccccc1)c1ccccc1 [Example B-2277] |  |
| 1600 nM |  | Cc1cc(C)c(S(=O)(=O)NCCc2[nH]nc(-c3ccc(F)cc3)c2-c2ccncc2)c(C)c1 [Example B-1067] |  |

| IC50 [1] | IC50 [2] | SMILES | also measured |
| --- | --- | --- | --- |
|  |  | CN(C)C(=O)NCCCc1[nH]nc(-c2ccc(F)cc2)c1-c1ccncc1 [Example B-1212] | P38 alpha kinase % inhib @ conc. (@ 1.0 uM): 90.0% @ |
| 330 nM |  | O=S(=O)(NC(Cc1ccccc1)c1[nH]nc(-c2ccc(F)cc2)c1-c1ccncc1)c1ccc(F)cc1 (stereo not drawn) [Example B-0752] |  |
| 3410 nM |  | COc1cccc(C(=O)NC(Cc2ccccc2)c2[nH]nc(-c3ccc(F)cc3)c2-c2ccncc2)c1 (stereo not drawn) [Example B-0824] |  |
|  | < 100 nM | CC1(C)[C@@H]2CC[C@@]1(S(=O)(=O)NCCCc1[nH]nc(-c3ccc(F)cc3)c1-c1ccncc1)C(=O)C2 [Example B-1277] |  |
|  |  | CCOC(=O)N1CCC(NC(=O)Cn2nc(-c3ccc(F)cc3)c(-c3ccncc3)c2C)CC1 [Example B-2329] | P38 alpha kinase % inhib @ conc. (@ 10.0 uM): 72.0% @ |
|  |  | O=S(=O)(NCCCc1[nH]nc(-c2ccc(F)cc2)c1-c1ccncc1)c1ccc(F)cc1F [Example B-1195] | P38 alpha kinase % inhib @ conc. (uM) (@ 1.0 uM): 52.0% @ |
|  | < 100 nM | COc1cccc(C(=O)N2CCC(c3[nH]nc(-c4ccc(F)cc4)c3-c3ccncc3)CC2)c1 [Example B-1369] |  |
| 220 nM |  | O=C(NCc1ccc(S(=O)(=O)NCCc2[nH]nc(-c3ccc(F)cc3)c2-c2ccncc2)s1)c1ccccc1 [Example B-1108] |  |
| 580 nM |  | Cc1ccc(C)c(S(=O)(=O)NC(C)c2[nH]nc(-c3ccc(F)cc3)c2-c2ccncc2)c1 (stereo not drawn) [Example B-0645] |  |
| 5970 nM |  | CC(NS(=O)(=O)c1cccc2nonc12)c1[nH]nc(-c2ccc(F)cc2)c1-c1ccncc1 (stereo not drawn) [Example B-0654] |  |
| 2580 nM |  | CC(NC(=O)c1cccnc1)c1[nH]nc(-c2ccc(F)cc2)c1-c1ccncc1 (stereo not drawn) [Example B-0554] |  |
|  | < 100 nM | COc1ccc(Br)cc1S(=O)(=O)NCCCc1[nH]nc(-c2ccc(F)cc2)c1-c1ccncc1 [Example B-1279] |  |
|  | 1050 nM | O=S(=O)(NCCCc1[nH]nc(-c2ccc(F)cc2)c1-c1ccncc1)c1ccccc1C(F)(F)F [Example B-1263] |  |
| 1990 nM |  | O=S(=O)(Cc1ccccc1)NC(Cc1ccccc1)c1[nH]nc(-c2ccc(F)cc2)c1-c1ccncc1 (stereo not drawn) [Example B-0711] |  |
|  |  | CCOC(=O)CC(C)NC(=O)Cn1nc(-c2ccc(F)cc2)c(-c2ccncc2)c1C (stereo not drawn) [Example B-2343] | P38 alpha kinase % inhib @ conc. (@ 10.0 uM): 43.0% @ |
|  |  | Cc1c(-c2ccncc2)c(-c2ccc(F)cc2)nn1CC(=O)N1Cc2ccsc2CC1c1ccc(Cl)cc1 (stereo not drawn) [Example B-2410] | P38 alpha kinase IC50, uM or % inhib @ conc. (uM): % inhib (@ 10.0 uM): 33.0% @ |
| 80 nM |  | COc1ccc(S(=O)(=O)NC(Cc2ccccc2)c2[nH]nc(-c3ccc(F)cc3)c2-c2ccncc2)cc1OC (stereo not drawn) [Example B-0767] |  |
|  |  | CCS(=O)(=O)NCCc1[nH]nc(-c2ccc(F)cc2)c1-c1ccncc1 [Example B-1023] | P38 alpha kinase % inhib @ conc. (uM) (@ 1.0 uM): 93.0% @ |
| 420 nM |  | CC(NC(=O)c1c(F)ccc(F)c1F)c1[nH]nc(-c2ccc(F)cc2)c1-c1ccncc1 (stereo not drawn) [Example B-0680] |  |
|  | 59 nM | N#Cc1ccc(C(=O)N2CCC(c3[nH]nc(-c4ccc(F)cc4)c3-c3ccncc3)CC2)cc1 [Example B-1392] |  |
| 1680 nM |  | CCN(CC)C(=O)NC(C)c1[nH]nc(-c2ccc(F)cc2)c1-c1ccncc1 (stereo not drawn) [Example B-0597] |  |
|  |  | Cc1c(-c2ccncc2)c(-c2ccc(F)cc2)nn1CC(=O)N1CCC(N(C)C(=O)OC(C)(C)C)C1 (stereo not drawn) [Example B-2413] | P38 alpha kinase IC50, uM or % inhib @ conc. (uM): % inhib (@ 10.0 uM): 75.0% @ |

| SMILES | IC50 [1] | IC50 [2] | also measured |
| --- | --- | --- | --- |
| O=C(NCc1[nH]nc(-c2ccc(F)cc2)c1-c1ccncc1)c1c(Cl)cccc1Cl [Example B-0294] |  | 680 nM |  |
